# Source: PMC9450471 (Computational Biology and Chemistry, 2022)
# Test: in vitro
# Conditions: African green monkey
row,SMILES,CC50 [µM]
1,CCC(CC)COC(=O)[C@H](C)N[P@](=O)(OC[C@H]1O[C@@](C#N)(c2ccc3c(N)ncnn23)[C@H](O)[C@@H]1O)Oc1ccccc1 [Remdesivir],> 100
2,CC(C)Nc1nc2cc(Cl)c(Cl)cc2n1[C@H]1O[C@@H](CO)[C@H](O)[C@@H]1O [Maribavir],> 100
3,CC(C)C(=O)OC[C@H]1O[C@@H](n2ccc(NO)nc2=O)[C@H](O)[C@@H]1O [Molnupiravir],> 100
4,OC[C@H]1O[C@@H](n2cnc3c(N[C@@H]4CCOC4)ncnc32)[C@H](O)[C@@H]1O [Tecadenoson],> 100
5,COc1nc(N)nc2c1ncn2[C@@H]1O[C@H](CO)[C@@H](O)[C@@H]1O [Nelarabine],> 100
6,"Nc1ncnc2c1ncn2[C@@H]1O[C@H](CO)[C@@H](O)[C@@H]1O [Vidarabine, Arabinosyladenine]",> 100
7,"CC(C)=CCNc1ncnc2c1ncn2[C@@H]1O[C@H](CO)[C@@H](O)[C@H]1O [Riboprine, N ^6-(2-Isopentenyl)adenosine]",> 100
8,O=c1[nH]cnc2c([C@@H]3N[C@H](CO)[C@@H](O)[C@H]3O)c[nH]c12 [Forodesine],> 100
